Where a SMILES comes first, the peptide text is derived from it. The star is where a group is joined. Cbz = O=C(OCc1ccccc1)*; CH2F = FC*
Key:
[1] = tested on: human synovial Vδ1 clone Bb15; assay: Human synovial γδ T cell clone Bb15 cultured with human DC and B. burgdorferi; type: cell-based; details: Borrelia plus zVAD-treated (50 μM) DC cultured with GM-CSF alone
Description: γδ T cell clones were derived from synovial fluid T cells stimulated with B. burgdorferi sonicate (10 μg/ml) and then cloned at limiting dilution as previously described (8). All clones are of the Vδ1 subset by antibody staining and DNA sequencing (8). Clones were restimulated every 10-14 days in the presence of irradiated peripheral blood lymphocytes (3×10^5/well), human recombinant IL-2 (10 U/ml), and 10 μg/ml of B. burgdorferi.
Human monocytes were obtained as […] cells by magnetic bead purification (Miltenyi Biotech, Auburn, Calif.) from peripheral blood of healthy volunteers. Myeloid DC were prepared by culture of monocytes in AIM V media plus 10% fetal calf serum (HyClone) with 800 U/ml of granulocyte-macrophage colony-stimulating factor (GM-CSF), (BioLegend, San Diego, Calif.) without or with 500 U/ml IL-4 (BioLegend).

BMDC = assay: Cell death of BMDC by TUNEL assay; type: cell-based, mice
Description: The preparation of bone marrow-derived dendritic cells (BMDC) was done according to the method of Lutz et al. (26) using GM-CSF ([…] PeproTech, Rocky Hill N.J.) or GM-CSF plus IL-4 (10 μg/ml, PeproTech). Cells were used on day 7.
(§1) Cell death was examined by terminal deoxynucleotidyl transferase dUTP nick end labeling (TUNEL). Briefly, cells were stained for expression of cell surface molecules, and then fixed with 1% methanol-free formaldehyde followed by 70% ethanol. After washing, the TUNEL reaction was performed by incubating cells in 50 μl of reaction mix containing 10 units of terminal deoxribosyl transferase (TdT), 2.5 mM cobalt chloride in 1× TdT buffer, and 0.2 pmol/μl of FITC-dUTP (Roche, Indianapolis, Ind.) at 37° C. for 1 hour. The cells were washed twice and fixed in 1% methanol-free formaldehyde. Murine thymocytes were included as a positive control for apoptotic cells. Flow cytometry was performed on an LSRII (BD Biosciences, San Jose, Calif.) calibrated with compensation beads (BD Biosciences). Analysis was performed using FlowJo software (Tree Star, Inc., Ashland, Oreg.).

[2] = animal models; cited from earlier work
RIPK1 = RIPK1 cleavage in BMDC by immunoblot; type: cell-based, mice
Description: Day 7 BMDC were lysed in Tris-buffer containing Complete Protease Inhibitor (Roche), 0.2% NP-40 (Roche), and biotin-VAD-fmk (10 μM, MP Biomedicals, Santa Ana, Calif.). Insoluble cell fragments were removed by centrifugation, and the protein concentration of the resulting whole cell lysates was determined by Bradford assay (BioRad, Hercules, Calif.). Whole cell lysates (30 μg per lane) were separated by SDS-PAGE. Precipitation of active caspases was performed by rocking 600 μg of whole cell lysates initially with sepharose 4B beads (Sigma) at 4° C. for 2 hours to remove nonspecific binding of proteins to the beads, followed by overnight rocking incubation with streptavidin-conjugated sepharose beads (Invitrogen) at 4° C. Release of biotin-VAD-fmk-labeled caspases from the streptavidin beads was achieved by heating to 95° C. for 10 min in Laemmli buffer. After gel electrophoresis, proteins were transferred to PVDF membranes (0.2 μm pore size, Bio-Rad), and immunoblots were performed using antibodies (1 μg/ml) against caspase-3, caspase-8 (both Cell Signaling, Danvers, Mass.), caspase-9 (Stressgen, Farmingdale, N.Y.), and RIPK1 (BD Biosciences).

human DC = assay: Cell death of human DC from peripheral blood monocytes; type: cell-based; details: human DC cultured with GM-CSF, zVAD at doses very similar to murine DC, 20 h
Description: as §1, with “Human monocytes were obtained as […] cells by magnetic bead purification (Miltenyi Biotech, Auburn, Calif.) from peripheral blood of healthy volunteers. Myeloid DC were prepared by culture of monocytes in AIM V media plus 10% fetal calf serum (HyClone) with 800 U/ml of granulocyte-macrophage colony-stimulating factor (GM-CSF), (BioLegend, San Diego, Calif.) without or with 500 U/ml IL-4 (BioLegend). Cell” for “Cell”

In the case of CC(C)[C@H](NC(=O)OCc1ccccc1)C(=O)N[C@@H](C)C(=O)N[C@@H](CC(=O)O)C(=O)CF [zVAD, N-benzyloxycarbonyl-Val-Ala-Asp-fluoromethyl ketone] (Cbz-Val-Ala-Asp-CH2F), the “IFN-γ production by clone Bb15” value [1] is reported as “increased IFN-γ production”, the “dead BMDC” value (BMDC; 50 μM zVAD, BMDC grown in GM-CSF, within 18 hours, dose-dependent) is reported as roughly 80% and the “cell death of BMDC” value (BMDC; GM-CSF+IL-4-cultured BMDC with zVAD, compared to BMDC cultured with only GM-CSF) is reported as “greatly reduced cell death”. For the same molecule, the “reducing cell death after ischemia in multiple tissues” value [2] was “highly effective”, the “cleavage of RIPK1” value (RIPK1; BMDC cultured with GM-CSF only, zVAD) was “completely inhibited cleavage” and the “cleavage of RIPK1” value (RIPK1; BMDC cultured with GM-CSF+IL-4, zVAD) was “only partially inhibited”. For the same molecule, the “death of human DC” value (human DC) was “highly susceptible to death”.
